Results published in patent publication US20260215428A1, “WEED CONTROL METHOD” (SYNGENTA CROP PROTECTION AG, priority 2023, published 2026).

Columns and labels:
Format in all cases: in vivo
Echinochloa Crus-galli = experiment: Further glasshouse test versus other ACCase-inhibiting herbicides, Table B2-5; settings: 21 days after application
Text: (§1) Further tests were employed to test the efficacy of a compound of Formula I versus other ACCase-inhibiting herbicides. The five main targets were Lolium multiflorum, Eleusine indica, Digitaria insularis, Sorghum halepense and Echinochloa crus-galli. Collectively, the populations contained all the major target-site resistance mutations affecting ACCase herbicides. Two L. multiflorum (LM-NTSR-1 and LM-NTSR-2) and one E. crus-galli (ECG-NTSR-1) populations were characterised exclusively by non-target-site resistance (“NTSR”). The target-site resistant L. multiflorum and E. indication populations were 100% homozygous for different ACCase mutations whilst the D. insularis, S. halepense and E. crus-galli samples contained a mixture of homozygous wild and mutant individuals at different genotypic frequencies. Additional underlying NTSR cannot be ruled out in the populations characterised by target-site resistance.
(§2) Around 50 seeds of each of the 24 weed populations were sown in 12-cm pots containing a mixture of peat and compost in a 1:1 ratio. The pots were watered, fertilised and kept in controlled glasshouse conditions set at 24° C./16 hr day, 18° C. night, 65% relative humidity, and a photon flux density of approximately 250 μmol quanta m^−2 s^−1 for Lolium multiflorum. The E. indica, D. insularis, S. halepense and E. crus-galli plants were kept in a separate glasshouse bay characterised by a 17 H photoperiod of 180 μmol m^−2 s^−1 with temperatures of 25° C. day and 19° C. night and 65% relative humidity. When the plants were at the two to four-leaf stage, they were treated with the various ACCase-inhibiting herbicides at 0, 15, 30, 60, 120 and 240 g ai ha^−1 in a spray cabinet mounted with a single mobile Teejet flat fan nozzle (11002VS) calibrated to deliver 200 L ha^−1 at 200 kPa. The L. multiflorum populations were treated by a compound of Formula Ic, clodinafop-propargyl, pinoxaden, cycloxydim and clethodim and the warm season grass weeds E. indica, D. insularis, S. halepense and E. crus-galli were sprayed with a Compound Ic and the commonly employed haloxyfop-methyl and clethodim. Three replicate pots were used per population. Plants were assessed for visual damage compared to the untreated control 21 days after application (0=0% damage; 100=100% damage).

Digitaria sanguinalis = experiment: Glasshouse post-emergence test, visual damage, Table B1-4; settings: 14 days after application
Procedure: (§3) Seeds of a variety of test species are sown in standard soil in pots. For each treatment, three replicate pots containing 10-15 plants per one-inch pot were sprayed at the 2-3 leaf stage. Clethodim and Compound (Ic) were each applied at 15, 30, 60 and 120 g ai/ha. The test plants are then grown in a glasshouse under controlled conditions in a glasshouse (at 24/16° C., day/night; 14 hours light; 65% humidity) and watered twice daily. Plants were assessed for visual damage compared to the untreated control 14 days after application (0=0% damage; 100=100% damage).

Digitaria insularis = experiment: Further glasshouse test versus other ACCase-inhibiting herbicides, Table B2-3; settings: 21 days after application
Text: as §1, §2

Setaria viridis = experiment: Glasshouse post-emergence test, visual damage, Table B1-5; settings: 14 days after application
Procedure: as §3

Lolium multiflorum = experiment: Further glasshouse test versus other ACCase-inhibiting herbicides, Table B2-1; settings: 21 days after application
Text: as §1, §2

Sorghum halepense = experiment: Further glasshouse test versus other ACCase-inhibiting herbicides, Table B2-4; settings: 21 days after application
Text: as §1, §2

CC#Cc1ccc(C2=C(OC(=O)OC)C3CCC(C3)C2=O)c(OC)c1 (stereo not drawn) [Compound Ic]
visual damage (Echinochloa Crus-galli; biotype Sensitive, 15 g/ha): 100%
visual damage (Echinochloa Crus-galli; biotype Sensitive, 30 g/ha): 100%
visual damage (Echinochloa Crus-galli; biotype Sensitive, 60 g/ha): 100%
visual damage (Echinochloa Crus-galli; biotype Sensitive, 120 g/ha): 100%
visual damage (Echinochloa Crus-galli; biotype Sensitive, 240 g/ha): 100%
visual damage (Echinochloa Crus-galli; biotype W2027C, 15 g/ha): 100%
visual damage (Echinochloa Crus-galli; biotype W2027C, 30 g/ha): 100%
visual damage (Echinochloa Crus-galli; biotype W2027C, 60 g/ha): 100%
visual damage (Echinochloa Crus-galli; biotype W2027C, 120 g/ha): 100%
visual damage (Echinochloa Crus-galli; biotype W2027C, 240 g/ha): 100%
visual damage (Echinochloa Crus-galli; population ECG-NTSR-1 (non-target-site resistance), 15 g/ha): 90%
visual damage (Echinochloa Crus-galli; population ECG-NTSR-1 (non-target-site resistance), 30 g/ha): 100%
visual damage (Echinochloa Crus-galli; population ECG-NTSR-1 (non-target-site resistance), 60 g/ha): 100%
visual damage (Echinochloa Crus-galli; population ECG-NTSR-1 (non-target-site resistance), 120 g/ha): 100%
visual damage (Echinochloa Crus-galli; population ECG-NTSR-1 (non-target-site resistance), 240 g/ha): 100%
visual damage (Digitaria sanguinalis; biotype I1781L (heterozygous), 15 g/ha): 73%
visual damage (Digitaria sanguinalis; biotype I1781L (heterozygous), 30 g/ha): 90%
visual damage (Digitaria sanguinalis; biotype I1781L (heterozygous), 60 g/ha): 100%
visual damage (Digitaria sanguinalis; biotype I1781L (heterozygous), 120 g/ha): 100%
visual damage (Digitaria sanguinalis; biotype Sensitive, 15 g/ha): 90%
visual damage (Digitaria sanguinalis; biotype Sensitive, 30 g/ha): 100%
visual damage (Digitaria sanguinalis; biotype Sensitive, 60 g/ha): 100%
visual damage (Digitaria sanguinalis; biotype Sensitive, 120 g/ha): 100%
visual damage (Digitaria insularis; biotype Sensitive, 15 g/ha): 100%
visual damage (Digitaria insularis; biotype Sensitive, 30 g/ha): 100%
visual damage (Digitaria insularis; biotype Sensitive, 60 g/ha): 100%
visual damage (Digitaria insularis; biotype Sensitive, 120 g/ha): 100%
visual damage (Digitaria insularis; biotype Sensitive, 240 g/ha): 100%
visual damage (Digitaria insularis; biotype W2027C, 15 g/ha): 100%
visual damage (Digitaria insularis; biotype W2027C, 30 g/ha): 100%
visual damage (Digitaria insularis; biotype W2027C, 60 g/ha): 100%
visual damage (Digitaria insularis; biotype W2027C, 120 g/ha): 100%
visual damage (Digitaria insularis; biotype W2027C, 240 g/ha): 100%
visual damage (Setaria viridis; biotype GG2078 (homozygous), 15 g/ha): 50%
visual damage (Setaria viridis; biotype GG2078 (homozygous), 30 g/ha): 73%
visual damage (Setaria viridis; biotype GG2078 (homozygous), 60 g/ha): 98%
visual damage (Setaria viridis; biotype GG2078 (homozygous), 120 g/ha): 98%
visual damage (Setaria viridis; biotype II1781 (homozygous), 15 g/ha): 70%
visual damage (Setaria viridis; biotype II1781 (homozygous), 30 g/ha): 90%
visual damage (Setaria viridis; biotype II1781 (homozygous), 60 g/ha): 98%
visual damage (Setaria viridis; biotype II1781 (homozygous), 120 g/ha): 100%
visual damage (Setaria viridis; biotype LL1781 (homozygous), 15 g/ha): 60%
visual damage (Setaria viridis; biotype LL1781 (homozygous), 30 g/ha): 90%
visual damage (Setaria viridis; biotype LL1781 (homozygous), 60 g/ha): 98%
visual damage (Setaria viridis; biotype LL1781 (homozygous), 120 g/ha): 100%
visual damage (Setaria viridis; biotype Sensitive, 15 g/ha): 87%
visual damage (Setaria viridis; biotype Sensitive, 30 g/ha): 93%
visual damage (Setaria viridis; biotype Sensitive, 60 g/ha): 100%
visual damage (Setaria viridis; biotype Sensitive, 120 g/ha): 100%
visual damage (Lolium multiflorum; biotype C2088R, 15 g/ha): 100%
visual damage (Lolium multiflorum; biotype C2088R, 30 g/ha): 100%
visual damage (Lolium multiflorum; biotype C2088R, 60 g/ha): 100%
visual damage (Lolium multiflorum; biotype C2088R, 120 g/ha): 100%
visual damage (Lolium multiflorum; biotype C2088R, 240 g/ha): 100%
visual damage (Lolium multiflorum; biotype D2078G, 15 g/ha): 20%
visual damage (Lolium multiflorum; biotype D2078G, 30 g/ha): 90%
visual damage (Lolium multiflorum; biotype D2078G, 60 g/ha): 100%
visual damage (Lolium multiflorum; biotype D2078G, 120 g/ha): 100%
visual damage (Lolium multiflorum; biotype D2078G, 240 g/ha): 100%
visual damage (Lolium multiflorum; biotype I1781L, 15 g/ha): 100%
visual damage (Lolium multiflorum; biotype I1781L, 30 g/ha): 100%
visual damage (Lolium multiflorum; biotype I1781L, 60 g/ha): 100%
visual damage (Lolium multiflorum; biotype I1781L, 120 g/ha): 100%
visual damage (Lolium multiflorum; biotype I1781L, 240 g/ha): 100%
visual damage (Lolium multiflorum; biotype Sensitive, 15 g/ha): 100%
visual damage (Lolium multiflorum; biotype Sensitive, 30 g/ha): 100%
visual damage (Lolium multiflorum; biotype Sensitive, 60 g/ha): 100%
visual damage (Lolium multiflorum; biotype Sensitive, 120 g/ha): 100%
visual damage (Lolium multiflorum; biotype Sensitive, 240 g/ha): 100%
visual damage (Lolium multiflorum; biotype W1999S, 15 g/ha): 85%
visual damage (Lolium multiflorum; biotype W1999S, 30 g/ha): 100%
visual damage (Lolium multiflorum; biotype W1999S, 60 g/ha): 100%
visual damage (Lolium multiflorum; biotype W1999S, 120 g/ha): 100%
visual damage (Lolium multiflorum; biotype W1999S, 240 g/ha): 100%
visual damage (Lolium multiflorum; biotype W2027C, 15 g/ha): 88%
visual damage (Lolium multiflorum; biotype W2027C, 30 g/ha): 100%
visual damage (Lolium multiflorum; biotype W2027C, 60 g/ha): 100%
visual damage (Lolium multiflorum; biotype W2027C, 120 g/ha): 100%
visual damage (Lolium multiflorum; biotype W2027C, 240 g/ha): 100%
visual damage (Lolium multiflorum; population LM-NTSR-1 (non-target-site resistance), 15 g/ha): 93%
visual damage (Lolium multiflorum; population LM-NTSR-1 (non-target-site resistance), 30 g/ha): 100%
visual damage (Lolium multiflorum; population LM-NTSR-1 (non-target-site resistance), 60 g/ha): 100%
visual damage (Lolium multiflorum; population LM-NTSR-1 (non-target-site resistance), 120 g/ha): 100%
visual damage (Lolium multiflorum; population LM-NTSR-1 (non-target-site resistance), 240 g/ha): 100%
visual damage (Lolium multiflorum; population LM-NTSR-2 (non-target-site resistance), 15 g/ha): 48%
visual damage (Lolium multiflorum; population LM-NTSR-2 (non-target-site resistance), 30 g/ha): 82%
visual damage (Lolium multiflorum; population LM-NTSR-2 (non-target-site resistance), 60 g/ha): 87%
visual damage (Lolium multiflorum; population LM-NTSR-2 (non-target-site resistance), 120 g/ha): 100%
visual damage (Lolium multiflorum; population LM-NTSR-2 (non-target-site resistance), 240 g/ha): 100%
visual damage (Sorghum halepense; biotype Sensitive, 15 g/ha): 95%
visual damage (Sorghum halepense; biotype Sensitive, 30 g/ha): 97%
visual damage (Sorghum halepense; biotype Sensitive, 60 g/ha): 100%
visual damage (Sorghum halepense; biotype Sensitive, 120 g/ha): 100%
visual damage (Sorghum halepense; biotype Sensitive, 240 g/ha): 100%
visual damage (Sorghum halepense; biotype W2027C, 15 g/ha): 65%
visual damage (Sorghum halepense; biotype W2027C, 30 g/ha): 80%
visual damage (Sorghum halepense; biotype W2027C, 60 g/ha): 98%
visual damage (Sorghum halepense; biotype W2027C, 120 g/ha): 100%
visual damage (Sorghum halepense; biotype W2027C, 240 g/ha): 100%
